According to patent US20220396577A1, “NOVEL SUBSTITUTED 1,3-8-TRIAZASPIRO[4,5] DECANE-2,4-DIONE COMPOUNDS AS INDOLEAMINE 2,3-DIOXYGENASE (IDO) AND/OR TRYPTOPHAN 2,3-DIOXYGENASE (TDO) INHIBITORS” (Merck Sharp & Dohme LLC, priority 2019, published 2022):

What was measured:
IDO1 = IDO1 (Homo sapiens, UniProt P14902); test: IDO1 Human Whole Blood Assay (D); format: cell-based; parameters: from tissue; host or cells: human whole blood from healthy donors, stimulated with LPS and IFNγ; conditions: LPS and IFNγ, 18 h, read-out: IDO WB IC50, nM (D)
IDO1, sequence (P14902 whole entry): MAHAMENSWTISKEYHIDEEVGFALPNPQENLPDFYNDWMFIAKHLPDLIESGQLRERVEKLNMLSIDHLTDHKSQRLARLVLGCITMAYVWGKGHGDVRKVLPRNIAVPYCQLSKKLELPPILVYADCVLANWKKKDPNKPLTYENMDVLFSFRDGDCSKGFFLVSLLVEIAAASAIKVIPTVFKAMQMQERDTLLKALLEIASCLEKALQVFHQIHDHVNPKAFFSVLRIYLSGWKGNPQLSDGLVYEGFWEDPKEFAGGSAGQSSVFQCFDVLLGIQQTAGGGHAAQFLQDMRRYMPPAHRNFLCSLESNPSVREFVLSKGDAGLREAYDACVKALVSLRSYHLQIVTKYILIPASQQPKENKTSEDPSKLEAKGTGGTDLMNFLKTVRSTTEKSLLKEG
Procedure: Compounds to be tested were serially diluted in ten 3-fold steps in DMSO starting from 10 mM. 3 μL of compound dilutions or DMSO alone were then dispensed from the dilution plate into a polypropylene 96-well assay plate containing 97 μL of RPMI using an Echo 555 acoustic liquid handler (Labcyte). LPS and IFNγ was prepared in RPMI to a 10× of final conc. (1000 ng/mL), final concentration is 100 ng/mL.
Human whole blood was drawn in sodium heparin coated tubes from healthy internal donors. 240 μL of blood was transferred to each of the wells of a v-bottom 96 well plate. 30 μL of a compound was transferred from intermediate dilution plate, and incubated for 15 min. 30 μL of the LPS and IFNγ solution prepared above was then transferred to a blood sample and mixed thoroughly. Plate was covered with breathable membrane and incubated at 37° C. for overnight (18 h).
On day 2 isotope labeled standard of kynurenine and tryptophan was made in water at 10× concentration and 30 μL was added to the blood sample at 3 μM final concentration. […] 20 μL of supernatant was carefully transferred to a 384 well plate contain 40 μL of 0.1% formic acid in water and analyzed by LC/MS/MS.
LC/MS/MS analyses were performed using Thermo Fisher's LX4-TSQ Quantum Ultra system. […] Compounds were titrated and IC50 values were calculated by 4 parameter sigmoidal curve fitting formula.

CDK9 (Cyclin T1) = CDK9 (Cyclin T1) (Homo sapiens, UniProt P50750); test: Off-target kinase panel, ADAPTA: CDK9 (Cyclin T1); format: biochemical; conditions: read-out: Estimated IC50 (uM) CDK9 (Cyclin T1)
CDK9 (Cyclin T1), sequence (P50750 whole entry): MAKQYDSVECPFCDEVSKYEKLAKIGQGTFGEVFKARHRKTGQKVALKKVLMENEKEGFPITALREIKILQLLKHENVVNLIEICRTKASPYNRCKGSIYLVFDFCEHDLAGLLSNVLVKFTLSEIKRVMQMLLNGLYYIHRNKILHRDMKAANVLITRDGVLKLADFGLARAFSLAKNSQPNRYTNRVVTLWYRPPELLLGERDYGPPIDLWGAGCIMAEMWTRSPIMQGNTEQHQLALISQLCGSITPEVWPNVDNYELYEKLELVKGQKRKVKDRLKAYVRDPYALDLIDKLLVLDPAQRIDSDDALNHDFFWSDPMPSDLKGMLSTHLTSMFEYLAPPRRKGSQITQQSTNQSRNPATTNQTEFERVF
CDK9 (Cyclin T1), sequence (O60563 whole entry partner): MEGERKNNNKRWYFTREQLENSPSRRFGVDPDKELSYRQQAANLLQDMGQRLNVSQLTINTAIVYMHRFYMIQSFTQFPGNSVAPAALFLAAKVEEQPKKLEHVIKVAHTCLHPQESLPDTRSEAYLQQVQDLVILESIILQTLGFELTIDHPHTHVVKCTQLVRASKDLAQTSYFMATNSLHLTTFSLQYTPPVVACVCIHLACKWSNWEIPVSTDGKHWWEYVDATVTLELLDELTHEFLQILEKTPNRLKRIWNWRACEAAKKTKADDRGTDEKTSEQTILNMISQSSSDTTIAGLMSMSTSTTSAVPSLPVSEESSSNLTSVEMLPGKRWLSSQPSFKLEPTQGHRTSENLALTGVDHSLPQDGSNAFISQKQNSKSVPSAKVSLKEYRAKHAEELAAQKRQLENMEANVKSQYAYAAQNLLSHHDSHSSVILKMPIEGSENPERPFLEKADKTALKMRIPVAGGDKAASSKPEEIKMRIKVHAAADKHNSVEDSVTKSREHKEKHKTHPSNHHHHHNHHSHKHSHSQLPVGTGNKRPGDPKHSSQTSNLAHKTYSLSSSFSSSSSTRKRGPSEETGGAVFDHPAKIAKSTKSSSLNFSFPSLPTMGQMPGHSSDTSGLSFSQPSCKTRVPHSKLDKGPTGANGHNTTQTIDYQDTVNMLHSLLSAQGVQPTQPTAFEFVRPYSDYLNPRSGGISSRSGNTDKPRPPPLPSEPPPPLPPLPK
Description: The activity data was obtained in a panel of 265 and 264 for compounds 1-1 and CC-1, respectively, using the ZLYTE and ADAPTA assay methods indicated in the table below.
The Adapta universal kinase assay is a homogenous, fluorescent based immunoassay for the detection of ADP. In contrast to ATP depletion assays, the Adapta assay is highly sensitive to ADP formation such that a majority of the signal change occurs in the first 10-20% conversion of ATP to ADP. This makes the Adapta universal kinase assay well suited for use with low activity kinases.
The principle of the Adapta universal kinase assay is outlined below. The assay itself can be divided into two phases: a kinase reaction phase, and an ADP detection phase. In the kinase reaction phase, all components required for the kinase reaction are added to the well, and the reaction is allowed to incubate for 60 minutes. After the reaction, a detection solution consisting of a europium labeled anti-ADP antibody, an Alexa Fluor 647 labeled ADP tracer, and EDTA (to stop the kinase reaction) is added to the assay well. […]
ADP formation is determined by calculating the emission ratio from the assay well. The emission ratio is calculated by dividing the intensity of the tracer (acceptor) emission by the intensity of the Eu (donor) emission at 615 nm as shown in the equation below. […]
12. Read on fluorescence plate reader and analyze the data.

IC50 (IDO1) | IC50 (CDK9 (Cyclin T1)) | SMILES
345 nM | > 2 µM | C[C@@H]1CN(c2cc(Br)cc3[nH]ncc23)CC[C@]12NC(=O)NC2=O (single isomer, unassigned) [Compound 1-1]
556 nM | 0.15 µM | O=C1NC(=O)C2(CCN(c3cc(Cl)cc4[nH]ncc34)CC2)N1 [CC-1]
